Data set [1] has as its system NIH 3T3 EF cells. The data set can be described thus: wound healing assay (cell motility). The data set is classed as cell-based. The following applies: 50 nM. As for the experimental part: (§1) Wound healing assay was performed to evaluate the effect of BA016DD537 on motility of malignant NIH 3T3 EF cells and melanoma cell lines B16F10 and B16BL6. All the cells were incubated at 37° C. in a humidified 5% CO2 atmosphere. About 100 000-200 000 cells were seeded in a 6-well culture plate and BA016DD537, at the different concentrations, was added 24 hours later. Cells were grown for 3 days to confluence about 90-95% and small scratch-wounds (about 200 μm-1 mm width) were made with a pipette tip. Cell debris were removed, then the cultures were incubated in complete medium for 10 h in the presence of the same concentration of BA016DD537. Then, the cells were fixed for 10 min in PBS containing 3.7% formaldehyde at 4° C.

For data set [2], the system named is B16BL6 melanoma cells. The data set is described as follows: wound healing assay (cell motility). The class given is cell-based. The following applies: non cytotoxic concentration. As for the experimental part: as §1
In data set [3] the test system is NIH 3T3 EF. The data set can be described thus: MTT cell proliferation assay. The data set is classed as cell-based. The following applies: 3 days, read-out: Cytotoxic effect (MTT) IC50. As to the method: (§2) Growth studies were performed using the [3-(4,5 dimethylthiazol-2-yl)-2,5-diphenyl-2H-tetrazolium bromide] (Sigma) calorimetric assay.
(§3) About 1500 to 5000 cells, according to the cell line, were seeded in a 96-well culture plate 24 hours before adding increasing concentrations of BA016DD537 or BA016FZ539. The plate was incubated at 37° C. for 3 days. 10 μl MTT stock solution (5 mg/ml in phosphate buffer saline) was added to 90 μl of complete medium in each well, the incubation was continued for 3 h at 37° C. 100 μl of lysis buffer (10% sodium dodecyl sulfate, 1% HCl 1N; pH 4.7) was added to each well, and the plate was incubated overnight. The absorbance was determined using an Integrated EIA Management System (Labsystem) at a wavelength of 570 nm. The proliferation rates were calculated from the OD readings using the untreated cells as 100%.

The subject of data set [4] is B16F10. The data set can be described thus: cloning assay in methylcellulose (colony formation). The class given is cell-based, murine. As for the experimental part: (§4) Cells were embedded in complete culture medium supplemented with 0.8% methylcellulose (Methocel MC4000, Sigma), seeded in triplicate into 35-mm dishes (Greiner Bio-one Ref 627102, Dominique Dutscher) and incubated at 37° C. in a humidified 5% CO2 atmosphere. The number of cells seeded was 1000 cells per dish. After one to three weeks, according to cell lines, macroscopic clones were counted.
Cells were embedded in complete culture medium supplemented with 0.8% methyl-cellulose (Methocel MC4000, Sigma), seeded in triplicate into 35-mm dishes and incubated at 37° C. in a humidified 5% CO2 atmosphere. The number of cells seeded was 1000 cells per dish. After 9 days, macroscopic clones of murine melanoma cell line B16F10 were counted.

In data set [5] the test system is B16F10 melanoma cells. The data set can be described thus: wound healing assay (cell motility). The following applies: 50 nM. The class given is cell-based, murine. As for the experimental part:
as §1

Data set [6] relates to NIH 3T3 EF. The data set can be described thus: cloning assay in methylcellulose (colony formation). The class given is cell-based. The following applies: read-out: Inhibition of colony formation (methylcellulose) IC50. As for the experimental part:
as §4

The subject of data set [7] is B16F10. The data set is described as follows: MTT cell proliferation assay. The class given is cell-based, murine. As for the experimental part: as §2, §3
Growth studies were performed using both MTT and SRB calorimetric assay (Sigma). About 1500 B16F10 or 3000 pancreatic cells (MIA PaCa-2 and PANC1) were seeded in a 96-well culture plate before adding increasing concentrations of monomesylate or bimesylate.
The plates were incubated at 37° C. for 3 days and then were treated depending on SRB or MTT protocols (see material and methods).
In these two cases, the proliferation rates were calculated from the OD readings using the untreated cells as 100%.
(Tetrazolium assays rely on reduction of a dye to a coloured formazan, in cell work by metabolically active cells.)

The subject of data set [8] is SK-N-MC. The data set is described as follows: MTT cell proliferation assay. The following applies: 3 days, read-out: Cytotoxic effect (MTT) IC50. The data set is classed as cell-based. As for the experimental part: as §2, §3
Data set [9] concerns B16BL6. The data set can be described thus: MTT cell proliferation assay. The class given is cell-based. The following applies: B16BL6, 3 days; read-out: Cytotoxic effect (MTT) IC50. As to the method:
as §2, §3

In data set [10] the test system is SK-N-MC. The data set can be described thus: cloning assay in methylcellulose (colony formation). The class given is cell-based. The following applies: read-out: Inhibition of colony formation (methylcellulose) IC50. As to the method:
as §4

For data set [11], the system named is B16BL6. The description is as above. The class given is cell-based. The following applies: read-out: Inhibition of colony formation (methylcellulose) IC50. As to the method:
as §4

Data set [12] concerns PANC-1 cell line. The data set can be described thus: morphological changes under microscopic observation (phenotype reversal). The data set is classed as cell-based, human. From the text: (§5) Changes in configuration and number of pancreatic cell lines were observed under microscopic observation (FIG. 5).
The subject of data set [13] is MIA PaCa-2 cells. The data set is described as above. The following applies: 4 μM for 3 days. The data set is classed as cell-based, human.
Description: as §5

The test system of data set [14] is HT144. The data set is described as follows: MTT cell proliferation assay. The data set is classed as cell-based, human. The following applies: HT144, 3 days; read-out: Cytotoxic effect (MTT) IC50. As to the method:
as §2, §3

The subject of data set [15] is 451 Lu. The data set is described as follows: MTT cell proliferation assay. The data set is classed as cell-based, human. The following applies: 3 days, read-out: Cytotoxic effect (MTT) IC50. As for the experimental part:
as §2, §3

For data set [16], the system named is PANC-1. The data set can be described thus: MTT cell proliferation assay. The class given is cell-based, human. As for the experimental part:
as §2, §3

For data set [17], the system named is C9. The data set is described as follows: MTT cell proliferation assay. The following applies: C9, 3 days; read-out: Cytotoxic effect (MTT) IC50. The class given is cell-based, human. As for the experimental part: as §2, §3
For data set [18], the system named is Mia Paca-2. The data set is described as follows: MTT cell proliferation assay. The class given is cell-based, human. As to the method:
as §2, §3

The test system of data set [19] is A375. The data set can be described thus: MTT cell proliferation assay. The data set is classed as cell-based, human. The following applies: A375, 3 days; read-out: Cytotoxic effect (MTT) IC50. As to the method: as §2, §3
For data set [20], the system named is SKMEL28. The data set is described as follows: MTT cell proliferation assay. The data set is classed as cell-based, human. The following applies: SKMEL28, 3 days; read-out: Cytotoxic effect (MTT) IC50. As for the experimental part:
as §2, §3

The subject of data set [21] is 1205 Lu. The data set can be described thus: MTT cell proliferation assay. The data set is classed as cell-based, human. The following applies: 3 days, read-out: Cytotoxic effect (MTT) IC50. As to the method: as §2, §3

The values below come from patent US20090197906A1, “REVERSION OF MALIGNANT PHENOTYPE WITH 9-HYDROXY ELLIPTICINE DERIVATIVES” (priority 2006, published 2009).

SMILES strings stand for the structures. Like-named read-outs stand apart in the source and are kept apart here.

Broadly, the IC50 is the concentration that inhibits the measured activity by half. Take `Cc1c2cc[n+](CCN3CCCCC3)cc2c(C)c2c1[nH]c1ccc(O)cc12.[Cl-]` [BA016DD537, 2-(β-piperidinoethyl)-9-hydroxyellipticinium chloride]: the “inhibition of cell migration” value in [1] and in data set [5] was “complete inhibition” in each case. In addition, the “inhibition of cell motility” value in data set [2] was “inhibition of the B16BL6 cells motility”. Further, the IC50 in data set [3] was determined as 400 nM; in [4] (B16F10, read-out: Inhibition of colony formation (methylcellulose) IC50) it was 35 nM; in data set [6], 30 nM; in data set [7] (B16F10, 3 days, read-out: Cytotoxic effect (MTT) IC50) it was 500 nM.
As for `CS(=O)(=O)[O-].Cc1c2cc[n+](CCN3CCCCC3)cc2c(C)c2c1[nH]c1ccc(O)cc12` [BA016FZ539, 2-(betapiperidino-2-ethyl)-9-hydroxyellipticinium methanesulfonate], the IC50 is 840 nM in data set [8]; 212 nM in [9]; 67 nM in [4] (B16F10, clones counted after 9 days (Example 11), listed as Monomesylate, read-out: B16F10 Inhibition of colony formation IC50); 205 nM in data set [10]; 29 nM in data set [11]; 2000 nM in [7] (B16F10 (Example 11), read-out: IC50 (MTT Test-72 h)). The IC50 in data set [14] turned out to be 9000 nM; in [15] it was 4200 nM; in data set [16] (PANC-1, 3 days, read-out: Cytotoxic effect (MTT) IC50) it was 22 µM; in data set [16] (PANC-1, viability 72 h (Example 9), read-out: IC50 (μM) MTT), 22 µM; in data set [17], 2100 nM; in data set [18] (MIA PaCA-2, viability 72 h, mean +/− SEM (Example 9), read-out: IC50 (μM) MTT) it was 7.58 µM. The IC50 in data set [18] (Mia Paca-2, 3 days, read-out: Cytotoxic effect (MTT) IC50) was found to be 7.6 µM; in data set [19], 2900 nM; in [20], 10700 nM; in data set [21], 1600 nM. The “reversal of the transformed phenotype (cell morphology)” value in data set [12] is given as “not in PANC-1 cell line”; in data set [13], “reversal from the transformed phenotype (FIG. 5, A) to a normal phenotype”.
